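96-well plates; 48 h exposure; 5 concentrations. Endpoints by linear interpolation between flanking doses. Not reached: highest tested concentration assigned. GI50: concentration for 50% inhibition of growth. TGI denotes the concentration required for complete inhibition of growth.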
Columns and labels:
Experiment in all cases: NCI tumour cell line growth inhibition, 48 h
[1] = system: PC-3 prostate
[2] = system: SK-MEL-28 melanoma
[3] = system: SK-MEL-2 melanoma
[4] = system: NCI-H460 lung
[5] = system: MDA-MB-468 breast
[6] = system: IGROV1 ovarian
[7] = system: HCT-116 colon
[8] = system: ACHN renal
[9] = system: OVCAR-3 ovarian
[10] = system: SF-268 CNS
[11] = system: MALME-3M melanoma
[12] = system: SF-295 CNS
[13] = system: UO-31 renal
[14] = system: A498 renal
[15] = system: RPMI-8226 leukemia
[16] = system: COLO 205 colon
[17] = system: K-562 leukemia
[18] = system: EKVX NSCLC
[19] = system: HCT-15 colon
[20] = system: CAKI-1 renal
[21] = system: SK-MEL-5 melanoma
[22] = system: NCI-H23 lung
[23] = system: SNB-75 CNS
[24] = system: BT-549 breast
[25] = system: OVCAR-8 ovarian
[26] = system: HL-60(TB) leukemia
[27] = system: 786-0 renal
[28] = system: MCF7 breast
[29] = system: U251 CNS
[30] = system: M14 melanoma
[31] = system: NCI-H226 lung
[32] = system: T-47D breast
[33] = system: UACC-257 melanoma
[34] = system: SNB-19 CNS
[35] = system: HS 578T breast
[36] = system: CCRF-CEM leukemia
[37] = system: MOLT-4 leukemia
[38] = system: TK-10 renal
[39] = system: RXF 393 renal
[40] = system: NCI-H522 lung
[41] = system: KM12 colon
[42] = system: MDA-MB-231 breast
[43] = system: SK-OV-3 ovarian
[44] = system: A549 NSCLC
[45] = system: MDA-MB-435
[46] = system: HT29 colon
[47] = system: HCC-2998 colon
[48] = system: SN12C renal
[49] = system: LOX IMVI melanoma
[50] = system: UACC-62 melanoma
[51] = system: SR leukemia
[52] = system: HOP-92 NSCLC
[53] = system: SW-620 colon
[54] = system: NCI/ADR-RES ovarian
[55] = system: HOP-62 NSCLC
[56] = system: OVCAR-5 ovarian
[57] = system: SF-539 CNS
[58] = system: DU-145 prostate
[59] = system: OVCAR-4 ovarian

Question: Which results are given for COc1ccc2ncc(C#Cc3cncc(C(=O)Nc4ccc(CN5CCN(C)CC5)c(C(F)(F)F)c4)c3)n2n1?
Answer: GI50 [1]: 3.76 µM; TGI [1]: 19.9 µM; GI50 [2]: 2.59 µM; TGI [2]: 5.8 µM; GI50 [3]: 1.29 µM; TGI [3]: 6.54 µM; GI50 [4]: 0.496 µM; TGI [4]: 13.1 µM; GI50 [5]: 1.66 µM; TGI [5]: 13 µM; GI50 [6]: 3.81 µM; TGI [6]: > 30.2 µM; GI50 [7]: 0.244 µM; TGI [7]: 5.55 µM; GI50 [8]: 1.39 µM; TGI [8]: > 28.4 µM; GI50 [9]: 6.35 µM; TGI [9]: > 39.7 µM; GI50 [10]: 2.83 µM; TGI [10]: 18.5 µM; GI50 [11]: 0.384 µM; TGI [11]: 3.32 µM; GI50 [12]: 0.986 µM; TGI [12]: 15.5 µM; GI50 [13]: 3.23 µM; TGI [13]: 12.8 µM; GI50 [14]: 14.2 µM; TGI [14]: > 37.7 µM; GI50 [15]: 1.39 µM; TGI [15]: > 72 µM; GI50 [16]: 0.265 µM; TGI [16]: 2.34 µM; GI50 [17]: 0.0072 µM; TGI [17]: 1.11 µM; GI50 [18]: 1.22 µM; TGI [18]: 13.3 µM; GI50 [19]: 0.496 µM; TGI [19]: 9.8 µM; GI50 [20]: 1.08 µM; TGI [20]: 10.5 µM; GI50 [21]: 4.78 µM; TGI [21]: 14.9 µM; GI50 [22]: 0.629 µM; TGI [22]: 10.3 µM; GI50 [23]: 5.91 µM; TGI [23]: 15.9 µM; GI50 [24]: 1.47 µM; TGI [24]: 9.85 µM; GI50 [25]: 4.26 µM; TGI [25]: 18.2 µM; GI50 [26]: 0.31 µM; TGI [26]: 4.25 µM; GI50 [27]: 3.53 µM; TGI [27]: 15.6 µM; GI50 [28]: 0.295 µM; TGI [28]: 3.68 µM; GI50 [29]: 9.62 µM; TGI [29]: 23.2 µM; GI50 [30]: 0.569 µM; TGI [30]: 3.12 µM; GI50 [31]: 0.147 µM; TGI [31]: 2.3 µM; GI50 [32]: > 72 µM; TGI [32]: > 72 µM; GI50 [33]: 3.8 µM; TGI [33]: 16.7 µM; GI50 [34]: 9.94 µM; TGI [34]: 21.5 µM; GI50 [35]: 0.398 µM; TGI [35]: 6.06 µM; GI50 [36]: 0.203 µM; TGI [36]: > 72 µM; GI50 [37]: 0.356 µM; TGI [37]: 4.07 µM; GI50 [38]: 6.03 µM; TGI [38]: 15.6 µM; GI50 [39]: 1.31 µM; TGI [39]: 8.63 µM; GI50 [40]: 1.84 µM; TGI [40]: 14.1 µM; GI50 [41]: 0.0072 µM; TGI [41]: 9.17 µM; GI50 [42]: 0.61 µM; TGI [42]: 6.53 µM; GI50 [43]: 5.68 µM; TGI [43]: 20 µM; GI50 [44]: 1.27 µM; TGI [44]: 17.7 µM; GI50 [45]: 0.54 µM; TGI [45]: 13.3 µM; GI50 [46]: 0.444 µM; TGI [46]: 9.45 µM; GI50 [47]: 4.16 µM; TGI [47]: 14.4 µM; GI50 [48]: 1.37 µM; TGI [48]: 8.03 µM; GI50 [49]: 0.877 µM; TGI [49]: 4.26 µM; GI50 [50]: 8.37 µM; TGI [50]: 18.2 µM; GI50 [51]: 0.549 µM; TGI [51]: > 30.5 µM; GI50 [52]: 0.238 µM; TGI [52]: 2.9 µM; GI50 [53]: 0.27 µM; TGI [53]: 7.6 µM; GI50 [54]: 2.23 µM; TGI [54]: 9.34 µM; GI50 [55]: 1.16 µM; TGI [55]: 16.6 µM; GI50 [56]: 0.838 µM; TGI [56]: 9.91 µM; GI50 [57]: 0.196 µM; TGI [57]: 1.13 µM; GI50 [58]: 2.19 µM; TGI [58]: 13.4 µM; GI50 [59]: 3.89 µM; TGI [59]: 18.3 µM

Source: PubChem BioAssay (NCI)
